Experimental findings from patent publication US20260364124A1, “ANTI-C. DIFFICILE SMALL MOLECULE METABOLITES FROM DIET AND GUT MICROBIOME” (The Children's Medical Center Corporation, priority 2023, published 2026) are described below.

Structures are written as SMILES.

In the assay the test system is B. uniformis. In words: In vitro aglycone liberation by wildtype B. uniformis (LC-MS). Also noted: species or system Bacteroides uniformis ATCC 8492. The conditions noted are these: role: substrate; B. uniformis cultivated with polydatin (FIG. 2). An excerpt: Comparative LC-MS EICs (Extracted Ion Chromatogram) of methanol-water extracts of bacterial cultures supplemented with each polyphenolic glycoside after eight hours are provided. The trace labeled “A” corresponds to the EIC of each glycoside, and the trace labeled “B” corresponds to the EIC of each aglycone. The portion of the trace “B” peak overlapping the trace “A” peak corresponds to the aglycone detected from fragmentation of the glycoside at the ionization source and is a technical artifact.
FIGS. 5A and 5B show microbiome-mediated polyphenol aglycone liberation. […] Step 2: Spent media was filter-sterilized. Step 3: C. difficile was grown in spent media from either vehicle or polydatin (top).
In vitro aglycone liberation: All B. uniformis strains were grown on brain-heart-infusion supplemented with hemin (50 mg/L) and vitamin K1 (0.25 mg/L) (BHIS) agar plates or in basal media (BSG; proteose peptone (20 g/L), yeast (5 g/L), NaCl (5 g/L), glucose (5 g/L), potassium phosphate dibasic (5 g/L), cysteine (0.5 g/L), hemin (50 mg/L), and vitamin K1 (0.25 mg/L). All isolates were recovered on and grown in pre-reduced media in a Coy anaerobic chamber (Coy Labs).
To assess the capacity of Bacteroides to liberate aglycones from their parent polyphenolic glycosides, B. uniformis ATCC 8492 WT and AgshD were recovered on a BHIS agar plate and incubated anaerobically at 37 °C for 48 h. A starter culture (1 mL) of BSG was inoculated with each isolate and grown for 15 h. This starter culture was then used to inoculate a BSG sub-culture (1 mL) at a final dilution of 1:10. […]
For polyphenolic glycoside and aglycone-containing samples, samples were dried under nitrogen flow and resuspended in 50 μl of methanol 50% in water. […] Samples were quantified on a QEplus mass spectrometer coupled to an Ultimate 3000 LC (Thermo fisher). […] Quantification was performed using Tracefinder (Thermo fisher), using the ratio of the area under the peak for each compound and of the internal standard, using the accurate mass of the [M−H]^− ions.

Regarding `OC[C@H]1O[C@@H](Oc2cc(O)cc(/C=C/c3ccc(O)cc3)c2)[C@H](O)[C@@H](O)[C@@H]1O` [polydatin], the “liberation of resveratrol from polydatin” value is reported as “liberated resveratrol”.
